Like-named read-outs stand apart in the source and are kept apart here.
How the values were obtained:
SHP2 = SHP2 (Homo sapiens (Human), UniProt Q06124); test: SHP2 Biochemical Assay (DiFMUP conversion, pIRS1-activated)
Summary of the method: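 Human SHP2 (10 pM) pre-incubated 30 min with compound and […] pIRS1 activating peptide, then 50 μM DiFMUP added; buffer 25 mM Bis-Tris propane pH 7.0, 150 mM NaCl, 5% DMSO. Fluorescence rate (ex 360/em 450 nm) over 30 min; IC50 by four-parameter fit, averaged across experiments.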

[1] = tested on: pERK (phospho-p44/42 ERK) in HCC827 cells; test: Cellular pERK Inhibition Assay, Method A (In-Cell Western); assay type: cell-based; settings: Homo sapiens
Summary of the method: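 HCC827 cells in RPMI/10% FBS were treated with compounds in serum-free medium (0.2% DMSO final) at 37 °C for the indicated time, in quadruplicate. Fixed cells were immunostained for phospho-p44/42 ERK and read by infrared imaging. Blank-subtracted signal was expressed as % of DMSO control; IC50 from four-parameter logistic fit, averaged across experiments.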

[2] = Table 19, head prints unit as "-M"
[3] = Table 19, head prints unit as "-M", read-out: pERK (IC50) Method A
[4] = Table 20, read-out: pERK (IC50, μM) Method A

Chain of SHP2 (Q06124 whole entry): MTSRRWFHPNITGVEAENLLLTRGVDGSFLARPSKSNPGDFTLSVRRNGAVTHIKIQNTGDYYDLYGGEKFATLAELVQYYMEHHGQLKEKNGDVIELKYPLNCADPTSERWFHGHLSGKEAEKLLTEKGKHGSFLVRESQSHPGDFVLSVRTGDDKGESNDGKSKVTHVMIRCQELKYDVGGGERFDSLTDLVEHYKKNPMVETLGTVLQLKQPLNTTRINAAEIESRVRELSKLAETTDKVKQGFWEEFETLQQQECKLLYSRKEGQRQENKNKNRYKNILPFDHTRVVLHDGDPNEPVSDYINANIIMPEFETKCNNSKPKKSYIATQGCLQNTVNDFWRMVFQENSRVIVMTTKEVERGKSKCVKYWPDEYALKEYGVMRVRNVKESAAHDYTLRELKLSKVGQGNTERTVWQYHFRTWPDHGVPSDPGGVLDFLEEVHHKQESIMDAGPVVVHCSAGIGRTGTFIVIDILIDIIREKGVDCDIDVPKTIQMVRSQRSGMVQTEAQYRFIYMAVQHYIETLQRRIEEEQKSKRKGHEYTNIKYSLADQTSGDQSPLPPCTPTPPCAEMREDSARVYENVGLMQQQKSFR

SMILES | IC50 (SHP2; [2]) [nM] | IC50 [1, 3] [µM] | IC50 (SHP2; Table 20) [nM] | IC50 [1, 4] [µM]
CCn1cc2c(Cl)c(-c3c[nH]c4nc(N5[C@@H]6CC[C@H]5C[C@@](C)(N)C6)n(C)c(=O)c34)ccc2n1 [Example 15, 2-(endo-3-amino-3-methyl-8-azabicyclo[3.2.1]octan-8-yl)-5-(4-chloro-2-ethyl-2H-indazol-5-yl)-3-methyl-3,7-dihydro-4H-pyrrolo[2,3-d]pyrimidin-4-one] | 17 | 0.5 | – | –
CN[C@@H]1C[C@@H]2CC[C@H]1N2c1nc2[nH]cc(-c3ccc4ncsc4c3Cl)c2c(=O)n1C [Example 105, 5-(7-chlorobenzo[d]thiazol-6-yl)-3-methyl-2-((1R,2R,4S)-2-(methylamino)-7-azabicyclo[2.2.1]heptan-7-yl)-3,7-dihydro-4H-pyrrolo[2,3-d]pyrimidin-4-one] | 5 | 0.16 | – | –
Cn1c(N2[C@@H]3CC[C@H]2C[C@@H](N)C3)nc2[nH]cc(-c3ccc4[nH]ncc4c3Cl)c2c1=O [Example 77] | 40 | 1.9 | – | –
Cn1c(N2C3CCCC2CNC3)nc2[nH]cc(-c3ccc4ncsc4c3Cl)c2c1=O [Example 108, 2-(3,9-diazabicyclo[3.3.1]nonan-9-yl)-5-(7-chlorobenzo[d]thiazol-6-yl)-3-methyl-3,7-dihydro-4H-pyrrolo[2,3-d]pyrimidin-4-one] | 4 | 0.09 | – | –
CN[C@@H]1C[C@@H]2CC[C@H]1N2c1nc2[nH]nc(-c3ccc4nn(C)cc4c3Cl)c2c(=O)n1C [Example 120, 3-(4-chloro-2-methyl-2H-indazol-5-yl)-5-methyl-6-((1R,2R,4S)-2-(methylamino)-7-azabicyclo[2.2.1]heptan-7-yl)-1,5-dihydro-4H-pyrazolo[3,4-d]pyrimidin-4-one] | 29 | 0.55 | – | –
COC1(CN)CCN(c2nc3[nH]cc(-c4ccc5nn(C)cc5c4Cl)c3c(=O)n2C)CC1 [Example 64, 2-(4-(aminomethyl)-4-methoxypiperidin-1-yl)-5-(4-chloro-2-methyl-2H-indazol-5-yl)-3-methyl-3,7-dihydro-4H-pyrrolo[2,3-d]pyrimidin-4-one] | 42 | 1.5 | – | –
Cn1cc2c(Cl)c(-c3c[nH]c4nc(N5[C@H]6CC[C@@H]5[C@H](F)[C@H](N)C6)n(C)c(=O)c34)ccc2n1 [Example 131, 2-((1R,2R,3R,5S)-3-amino-2-fluoro-8-azabicyclo[3.2.1]octan-8-yl)-5-(4-chloro-2-methyl-2H-indazol-5-yl)-3-methyl-3,7-dihydro-4H-pyrrolo[2,3-d]pyrimidin-4-one] | 28 | 0.46 | – | –
Cn1cc2c(Cl)c(-c3c[nH]c4nc(N5CC[C@](C)(N)C5)n(C)c(=O)c34)ccc2n1 [Example 54, (S)-2-(3-amino-3-methylpyrrolidin-1-yl)-5-(4-chloro-2-methyl-2H-indazol-5-yl)-3-methyl-3,7-dihydro-4H-pyrrolo[2,3-d]pyrimidin-4-one] | 110 | 1.8 | – | –
CN[C@@H]1C[C@@H]2CC[C@H]1N2c1nc2[nH]cc(-c3ccc4nn(C)c(Cl)c4c3Cl)c2c(=O)n1C [Example 104, 5-(3,4-dichloro-2-methyl-2H-indazol-5-yl)-3-methyl-2-((1R,2R,4S)-2-(methylamino)-7-azabicyclo[2.2.1]heptan-7-yl)-3,7-dihydro-4H-pyrrolo[2,3-d]pyrimidin-4-one] | 2.7 | 0.084 | – | –
Cn1c(N2[C@@H]3CC[C@H]2C[C@@H](N)C3)nc2[nH]cc(-c3ccc4nccnc4c3Cl)c2c1=O [Example 176, 2-(endo-3-amino-8-azabicyclo[3.2.1]octan-8-yl)-5-(5-chloroquinoxalin-6-yl)-3-methyl-3,7-dihydro-4H-pyrrolo[2,3-d]pyrimidin-4-one] | – | – | 77 | 0.66
Cn1nc2ccc(-c3n[nH]c4nc(N5CC[C@H](N)[C@H](F)C5)n(C)c(=O)c34)c(Cl)c2c1Cl [Example 162, 6-((3R,4S)-4-amino-3-fluoropiperidin-1-yl)-3-(3,4-dichloro-2-methyl-2H-indazol-5-yl)-5-methyl-1,5-dihydro-1H-pyrazolo[3,4-d]pyrimidin-4-one] | – | – | 42 | 0.81
C[C@H]1CN(c2nc3[nH]cc(-c4ccc5nn(C)cc5c4Cl)c3c(=O)n2C)CCN1 [Example 45, (S)-5-(4-chloro-2-methyl-2H-indazol-5-yl)-3-methyl-2-(3-methylpiperazin-1-yl)-3,7-dihydro-4H-pyrrolo[2,3-d]pyrimidin-4-one] | 110 | 1.5 | – | –
Cn1cc2c(Cl)c(-c3c[nH]c4nc(N5[C@@H]6CC[C@H]5[C@@H](F)[C@@H](N)C6)n(C)c(=O)c34)ccc2n1 [Example 132, 2-((1S,2S,3S,5R)-3-amino-2-fluoro-8-azabicyclo[3.2.1]octan-8-yl)-5-(4-chloro-2-methyl-2H-indazol-5-yl)-3-methyl-3,7-dihydro-4H-pyrrolo[2,3-d]pyrimidin-4-one] | 15 | 0.25 | – | –
Cn1nc2ccc(-c3c[nH]c4nc(N5C6CCCC5CNC6)n(C)c(=O)c34)c(F)c2c1Cl [Example 100, 2-(3,9-diazabicyclo[3.3.1]nonan-9-yl)-5-(3-chloro-4-fluoro-2-methyl-2H-indazol-5-yl)-3-methyl-3,7-dihydro-4H-pyrrolo[2,3-d]pyrimidin-4-one] | 6 | 0.095 | – | –
C[C@H]1CN(c2nc3[nH]cc(-c4ccc5nn(C)cc5c4Cl)c3c(=O)n2C)C[C@@H]1N [Example 57, 2-((3R,4S)-3-amino-4-methylpyrrolidin-1-yl)-5-(4-chloro-2-methyl-2H-indazol-5-yl)-3-methyl-3,7-dihydro-4H-pyrrolo[2,3-d]pyrimidin-4-one] | 120 | 2.9 | – | –
CCn1cc2c(Cl)c(-c3c[nH]c4nc(N5CCC(C)(N)CC5)n(C)c(=O)c34)ccc2n1 [Example 3, 2-(4-amino-4-methylpiperidin-1-yl)-5-(4-chloro-2-ethyl-2H-indazol-5-yl)-3-methyl-3,7-dihydro-4H-pyrrolo[2,3-d]pyrimidin-4-one] | 15 | 0.21 | – | –
CCn1cc2c(Cl)c(-c3n[nH]c4nc(N5[C@@H]6CC[C@H]5C[C@@](C)(N)C6)n(C)c(=O)c34)ccc2n1 [Example 115, 6-(endo-3-amino-3-methyl-8-azabicyclo[3.2.1]octan-8-yl)-3-(4-chloro-2-ethyl-2H-indazol-5-yl)-5-methyl-1,5-dihydro-4H-pyrazolo[3,4-d]pyrimidin-4-one] | 46 | 0.49 | – | –
Cn1cc2c(Cl)c(-c3c[nH]c4nc(N5C[C@H]6CC[C@@H]5[C@@H]6N)n(C)c(=O)c34)ccc2n1 (stereo in doubt) [Example 157, rel-2-((1R,4R,7R)-7-Amino-2-azabicyclo[2.2.1]heptan-2-yl)-5-(4-chloro-2-methyl-2H-indazol-5-yl)-3-methyl-3,7-dihydro-4H-pyrrolo[2,3-d]pyrimidin-4-one] | 3.7 | 0.022 | – | –
Cc1c2c(Cl)c(-c3c[nH]c4nc(N5[C@H]6CC[C@@H]5[C@H](N)C6)n(C)c(=O)c34)ccc2nn1C [Example 94, 2-((1R,2R,4S)-2-amino-7-azabicyclo[2.2.1]heptan-7-yl)-5-(4-chloro-2,3-dimethyl-2H-indazol-5-yl)-3-methyl-3,7-dihydro-4H-pyrrolo[2,3-d]pyrimidin-4-one] | 5 | 0.072 | – | –
CCn1nc2ccc(-c3c[nH]c4nc(N5[C@H]6CC[C@@H]5[C@H](N)C6)n(C)c(=O)c34)c(Cl)c2c1C#N [Example 159, 5-(2-((1R,2R,4S)-2-Amino-7-azabicyclo[2.2.1]heptan-7-yl)-3-methyl-4-oxo-4,7-dihydro-3H-pyrrolo[2,3-d]pyrimidin-5-yl)-4-chloro-2-ethyl-2H-indazole-3-carbonitrile] | 3.5 | 0.15 | – | –
Cn1cc2cc(-c3c[nH]c4nc(N5[C@@H]6CC[C@H]5C[C@@H](N)C6)n(C)c(=O)c34)c(F)cc2n1 [Example 72, 2-(endo-3-amino-8-azabicyclo[3.2.1]octan-8-yl)-5-(6-fluoro-2-methyl-2H-indazol-5-yl)-3-methyl-3,7-dihydro-4H-pyrrolo[2,3-d]pyrimidin-4-one] | 99 | 1.9 | – | –
Cc1nc2ccc(-c3n[nH]c4nc(N5[C@H]6CC[C@@H]5[C@H](N)C6)n(C)c(=O)c34)c(Cl)c2s1 [Example 113, 6-((1R,2R,4S)-2-amino-7-azabicyclo[2.2.1]heptan-7-yl)-3-(7-chloro-2-methylbenzo[d]thiazol-6-yl)-5-methyl-1,5-dihydro-4H-pyrazolo[3,4-d]pyrimidin-4-one] | 4.5 | 0.078 | – | –
CCn1cc2c(Cl)c(-c3c[nH]c4nc(N5C6CCCC5CNC6)n(C)c(=O)c34)ccc2n1 [Example 66, 2-(3,9-diazabicyclo[3.3.1]nonan-9-yl)-5-(4-chloro-2-ethyl-2H-indazol-5-yl)-3-methyl-3,7-dihydro-4H-pyrrolo[2,3-d]pyrimidin-4-one] | 8.2 | 0.082 | – | –
Cn1cc2c(Cl)c(-c3c[nH]c4nc(N5C[C@H]6C[C@@H](C5)[C@H]6N)n(C)c(=O)c34)ccc2n1 [Example 34, 2-(endo-6-amino-3-azabicyclo[3.1.1]heptan-3-yl)-5-(4-chloro-2-methyl-2H-indazol-5-yl)-3-methyl-3,7-dihydro-4H-pyrrolo[2,3-d]pyrimidin-4-one] | 160 | 2.3 | – | –
Cn1cc2c(Cl)c(-c3c[nH]c4nc(N5C6CCCC5CNC6)n(C)c(=O)c34)ccc2n1 [Example 27, 2-(3,9-diazabicyclo[3.3.1]nonan-9-yl)-5-(4-chloro-2-methyl-2H-indazol-5-yl)-3-methyl-3,7-dihydro-4H-pyrrolo[2,3-d]pyrimidin-4-one] | 7 | 0.046 | – | –

Source: US12037345B2, “Heterobicyclic compounds for inhibiting the activity of SHP2” (TAIHO PHARMACEUTICAL CO., LTD., priority 2018, dated 2024)
